Data as given in PubChem BioAssay AID2060483 (Molecular Pharmacology Branch, DTP, NCI, 2025).

System: K24384-001-R-PDC complex spheroids, viability
Assay: Anticancer human tumor K24384-001-R-PDC patient-derived pancreatic adenocarcinoma cell line growth inhibition [GQUAD]
Settings: for IC50: curve of first compound; for viability, T/C: stronger effect = lower value; active means viability on the fitted dose curve at most 10% of control; inactive means the rest
Procedure, shortened: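 Tumor cells were grown as complex spheroids with HUVEC endothelial cells and mesenchymal stem cells as stroma. G-quadruplex stabilizers were combined with targeted agents over half-log dilutions from near the clinical Cmax, or from 10 microM.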

[1] = second compound 0.0316 µM, first compound 0.0316 µM
[2] = second compound 0.0316 µM, first compound 0.316 µM
[3] = second compound 0.1 µM, first compound 0.0316 µM
[4] = second compound 0.1 µM, first compound 0.316 µM
[5] = second compound 0.316 µM, first compound 0.0316 µM
[6] = second compound 0.316 µM, first compound 0.316 µM
[7] = second compound 1 µM, first compound 0.0316 µM
[8] = second compound 1 µM, first compound 0.316 µM
[9] = second compound 3.16 µM, first compound 0.0316 µM
[10] = second compound 3.16 µM, first compound 0.316 µM
[11] = second compound 10 µM, first compound 0.0316 µM
[12] = second compound 10 µM, first compound 0.316 µM
[13] = second compound 0.0316 µM, first compound 0.1 µM
[14] = second compound 0.0316 µM, first compound 1 µM
[15] = second compound 0.0316 µM, first compound 3.16 µM
[16] = second compound 0.0316 µM, first compound 10 µM
[17] = second compound 0.1 µM, first compound 0.1 µM
[18] = second compound 0.1 µM, first compound 1 µM
[19] = second compound 0.1 µM, first compound 3.16 µM
[20] = second compound 0.1 µM, first compound 10 µM
[21] = second compound 0.316 µM, first compound 0.1 µM
[22] = second compound 0.316 µM, first compound 1 µM
[23] = second compound 0.316 µM, first compound 3.16 µM
[24] = second compound 0.316 µM, first compound 10 µM
[25] = second compound 1 µM, first compound 0.1 µM
[26] = second compound 1 µM, first compound 1 µM
[27] = second compound 1 µM, first compound 3.16 µM
[28] = second compound 1 µM, first compound 10 µM
[29] = second compound 3.16 µM, first compound 0.1 µM
[30] = second compound 3.16 µM, first compound 1 µM
[31] = second compound 3.16 µM, first compound 3.16 µM
[32] = second compound 3.16 µM, first compound 10 µM
[33] = second compound 10 µM, first compound 0.1 µM
[34] = second compound 10 µM, first compound 1 µM
[35] = second compound 10 µM, first compound 3.16 µM
[36] = second compound 10 µM, first compound 10 µM
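Further: spheroids exposed to compounds for seven days.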

Cn1ncnc1[C@H]1c2n[nH]c(=O)c3cc(F)cc(c23)N[C@@H]1c1ccc(F)cc1 + Cc1[nH]c2ccc(F)cc2c1-c1nc2c3cccnc3c3ncccc3c2[nH]1
> 316 nM: IC50 (second compound 0.0316 µM) | IC50 (second compound 0.1 µM) | IC50 (second compound 0.316 µM) | IC50 (second compound 1 µM) | IC50 (second compound 3.16 µM) | IC50 (second compound 10 µM)
inactive: viability, T/C (second compound 0.0316 µM, first compound 0.000999 µM) 97.8% | viability, T/C (second compound 0.0316 µM, first compound 0.00316 µM) 94.4% | viability, T/C (second compound 0.0316 µM, first compound 0.00999 µM) 99.6% | viability, T/C [1] 92% | viability, T/C (second compound 0.0316 µM, first compound 0.0999 µM) 102% | viability, T/C [2] 90.4% | viability, T/C (second compound 0.1 µM, first compound 0.000999 µM) 87.9% | viability, T/C (second compound 0.1 µM, first compound 0.00316 µM) 98.5% | viability, T/C (second compound 0.1 µM, first compound 0.00999 µM) 90.3% | viability, T/C [3] 91% | viability, T/C (second compound 0.1 µM, first compound 0.0999 µM) 97.1% | viability, T/C [4] 93.2% | viability, T/C (second compound 0.316 µM, first compound 0.000999 µM) 86.7% | viability, T/C (second compound 0.316 µM, first compound 0.00316 µM) 103% | viability, T/C (second compound 0.316 µM, first compound 0.00999 µM) 93% | viability, T/C [5] 89.5% | viability, T/C (second compound 0.316 µM, first compound 0.0999 µM) 93% | viability, T/C [6] 77.9% | viability, T/C (second compound 1 µM, first compound 0.000999 µM) 95.3% | viability, T/C (second compound 1 µM, first compound 0.00316 µM) 100% | viability, T/C (second compound 1 µM, first compound 0.00999 µM) 95.3% | viability, T/C [7] 81.8% | viability, T/C (second compound 1 µM, first compound 0.0999 µM) 85.9% | viability, T/C [8] 80.8% | viability, T/C (second compound 3.16 µM, first compound 0.000999 µM) 74% | viability, T/C (second compound 3.16 µM, first compound 0.00316 µM) 92.9% | viability, T/C (second compound 3.16 µM, first compound 0.00999 µM) 72.3% | viability, T/C [9] 73.5% | viability, T/C (second compound 3.16 µM, first compound 0.0999 µM) 72.4% | viability, T/C [10] 67.3% | viability, T/C (second compound 10 µM, first compound 0.000999 µM) 64.3% | viability, T/C (second compound 10 µM, first compound 0.00316 µM) 79% | viability, T/C (second compound 10 µM, first compound 0.00999 µM) 57.2% | viability, T/C [11] 76.1% | viability, T/C (second compound 10 µM, first compound 0.0999 µM) 71.2% | viability, T/C [12] 60.4%

COc1ncnc(C2CC2)c1-c1ncc2cnn(Cc3ccc(-c4nc(C(F)(F)F)cn4C(C)C)cc3)c2n1 + CN(C)c1ccc(Nc2c3ccc(NC(=O)CCN4CCCC4)cc3nc3cc(NC(=O)CCN4CCCC4)ccc23)cc1
> 10000 nM: IC50 (second compound 0.0316 µM) | IC50 (second compound 0.1 µM) | IC50 (second compound 0.316 µM) | IC50 (second compound 1 µM) | IC50 (second compound 3.16 µM)
6950 nM: IC50 (second compound 10 µM)
inactive: viability, T/C [1] 85% | viability, T/C [13] 107% | viability, T/C [2] 107% | viability, T/C [14] 96.9% | viability, T/C [15] 83.6% | viability, T/C [16] 104% | viability, T/C [3] 73.9% | viability, T/C [17] 86.3% | viability, T/C [4] 100% | viability, T/C [18] 86.1% | viability, T/C [19] 96.7% | viability, T/C [20] 110% | viability, T/C [5] 79.9% | viability, T/C [21] 90.7% | viability, T/C [6] 77% | viability, T/C [22] 102% | viability, T/C [23] 97.2% | viability, T/C [24] 93.5% | viability, T/C [7] 88.1% | viability, T/C [25] 84.2% | viability, T/C [8] 88.6% | viability, T/C [26] 95.6% | viability, T/C [27] 73.7% | viability, T/C [28] 88.6% | viability, T/C [9] 85.1% | viability, T/C [29] 112% | viability, T/C [10] 85.6% | viability, T/C [30] 79.1% | viability, T/C [31] 86.9% | viability, T/C [32] 91.8% | viability, T/C [11] 65.7% | viability, T/C [33] 99.2% | viability, T/C [12] 79.2% | viability, T/C [34] 88% | viability, T/C [35] 70.4% | viability, T/C [36] 40.6%

Nc1ccn(C2OC(CO)C(O)C2(F)F)c(=O)n1 (stereo unspecified) + CN(C)c1ccc(Nc2c3ccc(NC(=O)CCN4CCCC4)cc3nc3cc(NC(=O)CCN4CCCC4)ccc23)cc1
111 nM: IC50 (second compound 1 µM)
157 nM: IC50 (second compound 0.1 µM)
inactive: viability, T/C [1] 73.4% | viability, T/C [13] 66.5% | viability, T/C [2] 40.9% | viability, T/C [14] 35.9% | viability, T/C [15] 23.1% | viability, T/C [16] 21.4% | viability, T/C [3] 78.1% | viability, T/C [17] 57.2% | viability, T/C [4] 38.2% | viability, T/C [18] 30.8% | viability, T/C [19] 19.8% | viability, T/C [20] 19.8% | viability, T/C [5] 68.1% | viability, T/C [21] 56.6% | viability, T/C [6] 38.7% | viability, T/C [22] 30.3% | viability, T/C [23] 20.6% | viability, T/C [24] 17.2% | viability, T/C [7] 71.9% | viability, T/C [25] 49.9% | viability, T/C [8] 39.2% | viability, T/C [26] 24.4% | viability, T/C [27] 19.9% | viability, T/C [28] 16.8% | viability, T/C [9] 76.5% | viability, T/C [29] 57.6% | viability, T/C [10] 33.7% | viability, T/C [30] 23.3% | viability, T/C [31] 18.6% | viability, T/C [32] 15.6% | viability, T/C [11] 63.6% | viability, T/C [33] 54.1% | viability, T/C [12] 32.8% | viability, T/C [34] 27.9% | viability, T/C [35] 18.3% | viability, T/C [36] 18.2%
152 nM: IC50 (second compound 0.316 µM)
118 nM: IC50 (second compound 10 µM)
144 nM: IC50 (second compound 3.16 µM)
238 nM: IC50 (second compound 0.0316 µM)
